Experimental data reported in publication PMC10992195, “Identification, heterologous expression and characterization of a new unspecific peroxygenase from Marasmius fiardii PR-910” (Bioresources and Bioprocessing, 2024).
Counter-ions that a name gives are not always drawn. Like-named read-outs stand apart in the source and are kept apart here. Values belong to the molecule of their own block, whether it stands above or below them.

What was measured:
rMfiUPO [1] = tested on: T1, rMfiUPO; assay: spectrophotometric 4-nitrocatechol formation, […] nm, Michaelis-Menten fit; type: biochemical, Marasmius fiardii PR-910; conditions: 2 mM H2O2 co-substrate; 30 °C; pH 7.0 potassium phosphate
T1 construct: gene MfiUPO; full-length codon-optimised gene with native signal peptide, secreted by Pichia pastoris X33 (pPICZ-A); purified, glycosylated, 40-55 kDa smear, about 35 kDa after Endo H; short-type UPO, heme-thiolate

rMfiUPO [2] = tested on: T2, rMfiUPO; conditions: 2 mM H2O2 co-substrate; 30 °C; optimal pH (pH 4.0 optimum in text; pH 4.5 sodium citrate in Fig. 4 legend)
T2 construct: gene MfiUPO

rMfiUPO [3] = tested on: T1, rMfiUPO; assay: spectrophotometric veratraldehyde formation, […] nm, Michaelis-Menten fit; type: biochemical, Marasmius fiardii PR-910; conditions: 2 mM H2O2 co-substrate; 30 °C; pH 6.0 potassium phosphate

Km (rMfiUPO [1]): 93 ± 14 µM
SMILES: O=[N+]([O-])c1ccc2c(c1)OCO2 [NBD, 5-nitro-1,3-benzodioxole]

Km (rMfiUPO [2]): 22 ± 7 µM
SMILES: CCn1c(=NN=c2sc3cc(S(=O)(=O)O)ccc3n2CC)sc2cc(S(=O)(=O)O)ccc21 [ABTS, 2,2ʹ-azinobis (3-ethylbenzothiazoline-6-sulfonic acid) diammonium salt]

SMILES: COc1ccc(CO)cc1OC [VA]
Km (rMfiUPO [3]): 392 ± 109 µM
